Laboratory results reported in the NIST ThermoML archive (doi:10.1016/j.jct.2017.10.013).
Several values for one entry are separate records, joined by “and”; a condition that tells them apart may be missing. Equal entries are not always repeated.

Tests used:
[1] = for molar entropy: 101.33 kPa, Vacuum adiabatic calorimetry; for Triple point temperature: Adiabatic calorimetry
[2] = molar heat capacity at constant pressure; conditions: 101.33 kPa, Vacuum adiabatic calorimetry

[Ho+3].[Ho+3].[Se-2].[Se-2].[Se-2] [holmium selenide (Ho2Se3)]
Conditions	molar entropy, [1] [J/K/mol]	molar heat capacity at constant pressure, [2]
4.75 K, Crystal 3	–	4.433 J/K/mol
5 K, Crystal 3	1.64	5.229 J/K/mol
5.01 K, Crystal 3	–	4.889 J/K/mol
5.32 K, Crystal 3	–	7.582 J/K/mol
6.03 K, Crystal 2	3.189	12 J/K/mol and 11.86 J/K/mol
6.03 K, Crystal 3	3.189	11.86 J/K/mol and 12 J/K/mol
7 K, Crystal 2	–	10.5 J/K/mol
7.23 K, Crystal 2	–	9.963 J/K/mol
8 K, Crystal 2	–	6.9 J/K/mol
8.62 K, Crystal 2	–	9.268 J/K/mol
9 K, Crystal 2	–	7.3 J/K/mol
10 K, Crystal 2	8.227	8.4 J/K/mol
10.31 K, Crystal 2	–	9.187 J/K/mol
10.68 K, Crystal 2	–	9.794 J/K/mol
11.33 K, Crystal 2	–	10.14 J/K/mol
12.42 K, Crystal 2	–	11.01 J/K/mol
13.07 K, Crystal 2	–	11.54 J/K/mol
14.47 K, Crystal 2	–	12.75 J/K/mol
15 K, Crystal 2	12.67	13.14 J/K/mol
16.86 K, Crystal 2	–	14.62 J/K/mol
20 K, Crystal 2	17.04	17.39 J/K/mol
20.03 K, Crystal 2	–	17.51 J/K/mol
22.71 K, Crystal 2	–	19.72 J/K/mol
25 K, Crystal 2	21.4	22.07 J/K/mol
25.13 K, Crystal 2	–	22.18 J/K/mol
28.04 K, Crystal 2	–	25.54 J/K/mol
30 K, Crystal 2	25.92	27.86 J/K/mol
31.2 K, Crystal 2	–	29.55 J/K/mol
34.35 K, Crystal 2	–	34.03 J/K/mol
35 K, Crystal 2	30.74	34.94 J/K/mol
37.49 K, Crystal 2	–	38.79 J/K/mol
40 K, Crystal 2	35.91	42.81 J/K/mol
40.37 K, Crystal 2	–	43.37 J/K/mol
43.16 K, Crystal 2	–	48 J/K/mol
45 K, Crystal 2	41.42	50.85 J/K/mol
46.66 K, Crystal 2	–	53.47 J/K/mol
50 K, Crystal 2	47.18	58.65 J/K/mol
51.18 K, Crystal 2	–	60.48 J/K/mol
55.76 K, Crystal 2	–	66.98 J/K/mol
59.76 K, Crystal 2	–	72.46 J/K/mol
60 K, Crystal 2	59.16	72.86 J/K/mol
63.99 K, Crystal 2	–	77.76 J/K/mol
68.39 K, Crystal 2	–	82.55 J/K/mol
70 K, Crystal 2	71.3	84.33 J/K/mol
72.45 K, Crystal 2	–	86.7 J/K/mol
76.57 K, Crystal 2	–	90.48 J/K/mol
80 K, Crystal 2	83.16	93.16 J/K/mol
80.18 K, Crystal 2	–	93.23 J/K/mol
85.83 K, Crystal 2	–	97.43 J/K/mol
90 K, Crystal 2	94.54	99.99 J/K/mol
91.8 K, Crystal 2	–	101 J/K/mol
97.35 K, Crystal 2	–	103.9 J/K/mol
100 K, Crystal 2	105.4	105.2 J/K/mol
102.86 K, Crystal 2	–	106.2 J/K/mol
108.72 K, Crystal 2	–	108.5 J/K/mol
110 K, Crystal 2	115.6	109.2 J/K/mol
114.93 K, Crystal 2	–	110.9 J/K/mol
120 K, Crystal 2	125.2	112.4 J/K/mol
121.18 K, Crystal 2	–	112.4 J/K/mol
127.91 K, Crystal 2	–	114.2 J/K/mol
130 K, Crystal 2	134.3	114.8 J/K/mol
135.11 K, Crystal 2	–	115.7 J/K/mol
140 K, Crystal 2	142.9	116.5 J/K/mol
142.05 K, Crystal 2	–	116.8 J/K/mol
148.79 K, Crystal 2	–	117.9 J/K/mol
150 K, Crystal 2	151	117.9 J/K/mol
155.35 K, Crystal 2	–	118.6 J/K/mol
160 K, Crystal 2	158.6	119 J/K/mol
161.76 K, Crystal 2	–	119.2 J/K/mol
168.04 K, Crystal 2	–	119.9 J/K/mol
170 K, Crystal 2	165.9	119.9 J/K/mol
174.8 K, Crystal 2	–	120.3 J/K/mol
180 K, Crystal 2	172.7	120.8 J/K/mol
182.04 K, Crystal 2	–	120.9 J/K/mol
189.15 K, Crystal 2	–	121.4 J/K/mol
190 K, Crystal 2	179.3	121.5 J/K/mol
196.14 K, Crystal 2	–	122.1 J/K/mol
200 K, Crystal 2	185.5	122.1 J/K/mol
203.04 K, Crystal 2	–	122.2 J/K/mol
209.83 K, Crystal 2	–	122.9 J/K/mol
210 K, Crystal 2	191.5	122.8 J/K/mol
216.54 K, Crystal 2	–	123.2 J/K/mol
217.14 K, Crystal 2	–	123.4 J/K/mol
220 K, Crystal 2	197.3	123.6 J/K/mol
220.38 K, Crystal 2	–	123.3 J/K/mol
222.96 K, Crystal 2	–	123.9 J/K/mol
223.16 K, Crystal 2	–	124 J/K/mol
224.88 K, Crystal 2	–	124.3 J/K/mol
226.8 K, Crystal 2	–	124.9 J/K/mol
228.4 K, Crystal 1	201.9	125 J/K/mol and 125.2 J/K/mol
228.4 K, Crystal 2	201.9	125.2 J/K/mol and 125 J/K/mol
229.68 K, Crystal 1	–	124.4 J/K/mol
229.7 K, Crystal 1	–	124.4 J/K/mol
230 K, Crystal 1	202.8	124.3 J/K/mol
230.95 K, Crystal 1	–	123.6 J/K/mol
232.22 K, Crystal 1	–	122.9 J/K/mol
233.8 K, Crystal 1	–	123.6 J/K/mol
235.69 K, Crystal 1	–	122.7 J/K/mol
236.16 K, Crystal 1	–	123.1 J/K/mol
238.19 K, Crystal 1	–	123.1 J/K/mol
240 K, Crystal 1	208	123.1 J/K/mol
241.31 K, Crystal 1	–	123.4 J/K/mol
242.82 K, Crystal 1	–	122.7 J/K/mol
244.42 K, Crystal 1	–	123.3 J/K/mol
249.67 K, Crystal 1	–	123.4 J/K/mol
250 K, Crystal 1	213	123.4 J/K/mol
256.45 K, Crystal 1	–	123.6 J/K/mol
260 K, Crystal 1	217.9	123.6 J/K/mol
263.41 K, Crystal 1	–	123.5 J/K/mol
270 K, Crystal 1	222.6	123.7 J/K/mol
270.54 K, Crystal 1	–	123.7 J/K/mol
274.01 K, Crystal 1	–	123.6 J/K/mol
276.98 K, Crystal 1	–	124 J/K/mol
280 K, Crystal 1	227.1	123.8 J/K/mol
280.45 K, Crystal 1	–	123.7 J/K/mol
284.65 K, Crystal 1	–	124 J/K/mol
289.2 K, Crystal 1	–	123.9 J/K/mol
290 K, Crystal 1	231.4	123.9 J/K/mol
293.71 K, Crystal 1	–	123.6 J/K/mol
298.15 K, Crystal 1	234.8	123.9 J/K/mol
298.18 K, Crystal 1	–	123.9 J/K/mol
300 K, Crystal 1	235.6	123.9 J/K/mol
302 K, Crystal 1	236.4	123.9 J/K/mol
302.6 K, Crystal 1	–	124.2 J/K/mol

[1]
Conditions	Triple point temperature [K]
Crystal 2	228.4
Crystal 3	6.03
